Laboratory results from US12296030B2, “Conjugates and their use as imaging agents” (priority 2019, dated 2025).

How the values were obtained:
nodal metastases = assay: FDG-PET in patient 3; type: in vivo, human; settings: patient 3, 60 min after 256 MBq
proliferating cells = settings: cited from earlier work
[1] = system: quiescent endothelial cells; settings: in vitro; cited from earlier work
angiogenesis = settings: in vivo; cited from earlier work

| Compound | FDG-PET finding (nodal metastases) | toxicity to proliferating cells (proliferating cells) | toxicity to quiescent endothelial cells [1] | effect on angiogenesis (angiogenesis) |
| --- | --- | --- | --- | --- |
| O=C[C@H](F)[C@@H](O)[C@H](O)[C@H](O)CO [FDG, 2-fluoro-2-deoxyglucose] | two intensely metabolically active nodal metastases |  |  |  |
| N[C@@H](CCC(=O)N[C@@H](CSCC(=O)Nc1ccc([As](O)O)cc1)C(=O)NCC(=O)O)C(=O)O [GSAO, 4-(N—(S-glutathionylacetyl)amino)phenylarsenous acid] |  | toxic | nontoxic | inhibits angiogenesis in vivo |
